Data set [1] concerns dry eye syndrome model New Zealand rabbits. Briefly: Dry eye syndrome experiment (benzalkonium chloride model): tear film break-up time. It counts as in vivo, male New Zealand White rabbits. The note with it: for tear film break-up time: compared with the model group; for Tear film break-up time (s) D3 / Tear film break-up time (s) D7 / Tear film break-up time (s) D15: 1 mg/mL, 50 µL/eye, 3 times a day for 14 days.

Data set [2] concerns the target T1, mineralocorticoid receptor (MR) (Homo sapiens, UniProt P08235).
T1 sequence (P08235 726-984): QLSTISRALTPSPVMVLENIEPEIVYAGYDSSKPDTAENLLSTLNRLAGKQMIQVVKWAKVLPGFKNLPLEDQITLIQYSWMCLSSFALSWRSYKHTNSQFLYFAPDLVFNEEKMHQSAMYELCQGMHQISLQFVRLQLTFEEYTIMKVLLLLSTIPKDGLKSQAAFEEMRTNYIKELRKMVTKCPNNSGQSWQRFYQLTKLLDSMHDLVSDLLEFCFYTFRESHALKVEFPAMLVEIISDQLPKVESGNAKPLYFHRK
Kind of data set: Assay for agonist activity on mineralocorticoid receptor (luciferase reporter, HEK293 cells transfected with pBIND-MR plasmid). Format: cell-based. The note with it: for Target selectivity MR/GR: ratio of EC50 values; for target selectivity: MR/GR and PR/GR, same experimental conditions. Put shortly: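 HEK293 cells transiently transfected with pBIND-MR or pBIND-PR, seeded in phenol red-free DMEM with 5% charcoal-stripped serum. Compounds tested as 12-point 4-fold dilutions from 50 µM in duplicate, 0.1% DMSO blank. Luciferase luminescence read, EC50 by nonlinear fit.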
A general note: In a reporter assay the amount or activity of a reporter protein is the signal.

Data set [3] relates to intraocular pressure of guinea pigs. Briefly: Adverse reactions of continuous ocular administration: intraocular pressure. It counts as in vivo. As for the experimental part: Pharmacological Example 9: Experiment on Adverse Reactions of Continuous Ocular Administration in Guinea Pigs
Test samples: Compounds 17 and 23 were prepared as 5 mg/5 mL ophthalmic suspensions with reference to the formulation of Fluorometholone Eye Drops, and stored at room temperature protected from light until use.
Positive control drug: Fluorometholone Eye Drops (specification: 5 mL/5 mg; Santen Pharmaceutical (CHINA) Co., Ltd.; Lot No.: 1FM6545), Loteprednol Etabonate Eye Drops (specification 0.5% (5 mg/mL); Shandong Bausch & Lomb Freda Pharmaceutical Co., Ltd; Lot No. 386521), stored at room temperature protected from light until use.
Animals: 50 guinea pigs, conventional grade, with an equal number of males and females, weighing 300-350 g..
Animal grouping: After 5 days of adaptive feeding, the guinea pigs were randomly divided into 5 groups based on body weight. Group 1 was the blank control group, and 50 µL of normal saline was dropped into the eyes (bilateral) of the guinea pigs. Groups 2 to 5 were the fluorometholone group, loteprednol group, compound 17 group, and compound 23 group, respectively, and the corresponding drugs were dropped into the eyes (bilateral) of the guinea pigs. Table 19. Animal grouping and drug administration dosages for the experiment on adverse reactions of continuous ocular administration in guinea pigs
Intraocular pressure measurement time: The intraocular pressure of animals in each group was measured before administration and on days 7, 14, 21, and 28 post-administration.

Data set [4] concerns the target T2, glucocorticoid receptor (GR) (Homo sapiens, UniProt P04150).
T2 sequence (P04150 521-777): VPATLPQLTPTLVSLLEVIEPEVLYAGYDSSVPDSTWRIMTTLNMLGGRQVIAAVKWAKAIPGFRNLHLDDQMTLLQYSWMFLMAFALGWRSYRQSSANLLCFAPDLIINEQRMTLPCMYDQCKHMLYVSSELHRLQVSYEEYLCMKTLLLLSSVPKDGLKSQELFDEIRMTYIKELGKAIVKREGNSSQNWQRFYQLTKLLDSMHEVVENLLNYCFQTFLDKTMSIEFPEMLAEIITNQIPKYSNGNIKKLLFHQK
Briefly: Assay for agonist activity on glucocorticoid receptor (luciferase reporter, HEK293 cells transfected with pBIND-GR plasmid). Format: cell-based. Put shortly: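 HEK293 cells transfected with pBIND-GR, seeded in phenol red-free DMEM with 5% charcoal-stripped serum, then exposed to compounds in a 10-point, 4-fold dilution series from 10 µM, in duplicate. Luciferase luminescence read after incubation; EC50 from nonlinear fit. Vehicle blank: 0.1% DMSO.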

Setting [5] is: GR agonist EC50 (nM), HEK293 cells transfected with pBIND-GR, luciferase signal.
Setting [6] is: Nuclear receptor enzyme activity (nM) GR, EC50 of agonist activity, HEK293 reporter cells.
[7] abbreviates: HEK293 cells transfected with pBIND-GR, luciferase signal, read-out: GR agonist EC50.

SMILES strings stand for the structures. Like-named read-outs stand apart in the source and are kept apart here.

Take `C[C@]12C=CC(=O)C=C1CC[C@H]1[C@@H]3C[C@H]4OC(c5ccc(COC6CCOC6=O)cc5)O[C@@]4(C(=O)CO)[C@@]3(C)C[C@H](O)[C@@]12Cl` (stereo partly drawn) [Compound 22, (6aS,6bR,7S,8aS,8bS,11aR,12aS,12bS)-6b-Chloro-7-hydroxy-8b-(2-hydroxyacetyl)-6a,8a-dimethyl-10-(4-(((2-oxotetrahydrofuran-3-yl)oxy)methyl)phenyl)-1,2,6a,6b,7,8,8a,8b,11a,12,12a,12b-do decahydro-4H-naphtho[2',1':4,5]indeno[1,2-d][1,3]dioxol-4-one]: in data set [1], the “tear film break-up time” value was “significantly increased the tear film break-up time”. The values for the EC50 in data set [2], in data set [4] (setting [5]) and in data set [4] (setting [6]) were more than 50000 nM, 0.55 nM and 0.55 nM, respectively. Further, the “Target selectivity MR/GR” value in data set [2] was > 9.1×10^4. In addition, the “intraocular pressure after continuous ocular administration” value in data set [3] is given as “no abnormal intraocular pressure observed”.

As for `C[C@]12C=CC(=O)C=C1CC[C@H]1[C@@H]3C[C@H]4OC(c5ccc(CSC6COC(=O)C6)cc5Cl)O[C@@]4(C(=O)CO)[C@@]3(C)C[C@H](O)[C@@]12F` (stereo partly drawn) [Compound 20, (6aS,6bR,7S,8aS,8bS,11aR,12aS,12bS)-10-(2-Chloro-4-(((5-oxotetrahydrofuran-3-yl)thio)methyl)phenyl)-6b-fluoro-7-hydroxy-8b-(2-hydroxyacetyl)-6a,8a-dimethyl-1,2,6a,6b,7,8,8a,8b,11a,12,12a, 12b-dodecahydro-4H-naphtho[2',1':4,5]indeno[1,2-d][1,3]dioxol-4-one], in data set [1], the “Tear film break-up time (s) D3” value was found to be 37.00 ± 13.36 s, the “Tear film break-up time (s) D7” value stood at 48.00 ± 9.94 s, the “Tear film break-up time (s) D15” value worked out at 48.28 ± 8.21 s and the “tear film break-up time” value is on record as “significantly increased the tear film break-up time on day 15”. The target selectivity result in data set [2] was “target selectivity comparable to that of compound 23”. For the same molecule, in data set [3], the “intraocular pressure after continuous ocular administration” value is reported as “no abnormal intraocular pressure observed”. In addition, in data set [4] (setting [7]), the EC50 turned out to be 0.33 nM.

On to `C[C@]12C=CC(=O)C=C1CC[C@H]1[C@@H]3C[C@H]4OC(c5ccc(COC6CCOC6=O)cc5)O[C@@]4(C(=O)CO)[C@@]3(C)C[C@H](O)[C@@]12F` (stereo partly drawn) [Compound 16, (6aS,6bR,7S,8aS,8bS,11aR,12aS,12bS)-6b-Fluoro-7-hydroxy-8b-(2-hydroxyacetyl)-6a,8a-dimethyl-10-(4-(((2-oxotetrahydrofuran-3-yl)oxy)methyl)phenyl)-1,2,6a,6b,7,8,8a,8b,11a,12,12a,12b-do decahydro-4H-naphtho[2',1':4,5]indeno[1,2-d][1,3]dioxol-4-one], for which the “tear film break-up time” value in data set [1] is “significantly increased the tear film break-up time”. The EC50 in data set [2] was more than 50000 nM; in data set [4] (setting [5]), 0.43 nM; in data set [4] (setting [6]) it was 0.43 nM. Also, in data set [2], the “Target selectivity MR/GR” value is on record as > 1.2×10^5. Also, in data set [3], the “intraocular pressure after continuous ocular administration” value is “no abnormal intraocular pressure observed”.

Take `C[C@]12C=CC(=O)C=C1[C@@H](F)C[C@H]1[C@@H]3C[C@H]4OC(c5ccc(CSC6CCOC6=O)cc5)O[C@@]4(C(=O)OCC#N)[C@@]3(C)C[C@H](O)[C@@]12F` (stereo partly drawn) [Compound 37, Cyanomethyl (2S,6aS,6bR,7S,8aS,8bS,11aR,12aS,12bS)-2,6b-difluoro-7-hydroxy-6a,8a-dimethyl-4-oxo-10-(4-( ((2-oxotetrahydrofuran-3-yl)thio)methyl)phenyl)-1,2,4,6a,6b,7,8,8a,11a,12,12a,12b-dodecahydro-8bH-naphtho[2',1':4,5]indeno[1,2-d][1,3]dioxole-8b-carboxylate]: the “tear film break-up time” value in data set [1] is on record as “significantly increased the tear film break-up time”. Besides, the target selectivity result in data set [2] is given as “target selectivity comparable to that of compound 23”. Moreover, in data set [3], the “intraocular pressure after continuous ocular administration” value is “no abnormal intraocular pressure observed”. This molecule had an EC50 in data set [4] (setting [5]) of 0.78 nM.

As to `C[C@]12C=CC(=O)C=C1CC[C@H]1[C@@H]3C[C@H]4OC(c5ccc(CSC6CCOC6=O)cn5)O[C@@]4(C(=O)CO)[C@@]3(C)C[C@H](O)[C@@]12Cl` (stereo partly drawn) [Compound 51, (6aS,6bR,7S,8aS,8bS,11aR,12aS,12bS)-6b-Chloro-7-hydroxy-8b-(2-hydroxyacetyl)-6a,8a-dimethyl-10-(5-(((2-oxotetrahydrofuran-3-yl)thio)methyl)pyridin-2-yl)-1,2,6a,6b,7,8,8a,8b,11a,12,12a,12 b-dodecahydro-4H-naphtho[2',1':4,5]indeno[1,2-d][1,3]dioxol-4-one], in data set [1], the “tear film break-up time” value was “significantly increased the tear film break-up time”. Also, in data set [2], the target selectivity result is reported as “target selectivity comparable to that of compound 23”. Also, the “intraocular pressure after continuous ocular administration” value in data set [3] is given as “no abnormal intraocular pressure observed”. In data set [4] (setting [5]), the EC50 worked out at 0.82 nM.

`C[C@]12C=CC(=O)C=C1CC[C@H]1[C@@H]3C[C@H]4OC(c5ccc(CSC6COC(=O)C6)cc5)O[C@@]4(C(=O)CO)[C@@]3(C)C[C@H](O)[C@@]12Cl` (stereo partly drawn) [Compound 26, (6aS,6bR,7S,8aS,8bS,11aR,12aS,12bS)-6b-Chloro-7-hydroxy-8b-(2-hydroxyacetyl)-6a,8a-dimethyl-10-(4-(((5-oxotetrahydrofuran-3-yl)thio)methyl)phenyl)-1,2,6a,6b,7,8,8a,8b,11a,12,12a,12b-do decahydro-4H-naphtho[2',1':4,5]indeno[1,2-d][1,3]dioxol-4-one]: in data set [1], the “tear film break-up time” value was “significantly increased the tear film break-up time”. The target selectivity entry in data set [2] is recorded as “target selectivity comparable to that of compound 23”. In addition, in data set [3], the “intraocular pressure after continuous ocular administration” value is on record as “no abnormal intraocular pressure observed”. The molecule also had an EC50 in data set [4] (setting [5]) of 0.37 nM.

Regarding `C[C@]12C=CC(=O)C=C1CC[C@H]1[C@@H]3C[C@H]4OC(c5ccc(CSC6CCOC6=O)cc5)O[C@@]4(C(=O)CO)[C@@]3(C)C[C@H](O)[C@@]12Cl` (stereo partly drawn) [Compound 23, (6aS,6bR,7S,8aS,8bS,11aR,12aS,12bS)-6b-Chloro-7-hydroxy-8b-(2-hydroxyacetyl)-6a,8a-dimethyl-10-(4-(((2-oxotetrahydrofuran-3-yl)thio)methyl)phenyl)-1,2,6a,6b,7,8,8a,8b,11a,12,12a,12b-do decahydro-4H-naphtho[2',1':4,5]indeno[1,2-d][1,3]dioxol-4-one], in data set [1], the “Tear film break-up time (s) D3” value amounted to 45.67 ± 13.69 s, the “Tear film break-up time (s) D7” value was 49.33 ± 8.91" s, the “Tear film break-up time (s) D15” value is on record as 50.67 ± 10.41" s and the “tear film break-up time” value is recorded as “significantly increased the tear film break-up time on day 15”. The EC50 in data set [2] (EC50 of agonist activity, HEK293 reporter cells, top concentration 50 µM, read-out: Nuclear receptor enzyme activity (nM) MR) is more than 50000 nM. The “Target selectivity MR/GR” value in data set [2] is on record as > 2.4×10^5. The “intraocular pressure after continuous ocular administration” value in data set [3] is “no abnormal intraocular pressure was observed”. The “Intraocular pressure of guinea pigs (mmHg) D0” value in data set [3] (D0, before administration, 50 µL/eye (compounds and fluorometholone 1 mg/mL, loteprednol 5 mg/mL)) was 13.5 ± 0.6 mmHg. The “Intraocular pressure of guinea pigs (mmHg) D7” value in data set [3] (D7, 50 µL/eye (compounds and fluorometholone 1 mg/mL, loteprednol 5 mg/mL)) is reported as 15.3 ± 1.7 mmHg. Further, the “Intraocular pressure of guinea pigs (mmHg) D14” value in data set [3] (D14, 50 µL/eye (compounds and fluorometholone 1 mg/mL, loteprednol 5 mg/mL)) worked out at 15.3 ± 1.5 mmHg. Besides, the “Intraocular pressure of guinea pigs (mmHg) D21” value in data set [3] (D21, 50 µL/eye (compounds and fluorometholone 1 mg/mL, loteprednol 5 mg/mL)) was 15.3 ± 2.2 mmHg. Also, the “Intraocular pressure of guinea pigs (mmHg) D28” value in data set [3] (D28, 50 µL/eye (compounds and fluorometholone 1 mg/mL, loteprednol 5 mg/mL)) was 14.9 ± 1.6 mmHg. Moreover, the EC50 in data set [4] (EC50 of agonist activity, HEK293 reporter cells, read-out: Nuclear receptor enzyme activity (nM) GR) came to 0.21 nM. The EC50 in data set [4] (setting [7]) was 0.21 nM.
